≈ marks a conversion by molar mass, not a printed value. Read-outs that look alike come from different tables or passages of the source.
What was measured:
Assay type in all cases: cell-based
[1] = tested on: PaR5: Pseudomonas aeruginosa; assay: Antibiogram by the disk diffusion technique; conditions: for Diameter / Results / CA-SFM Interpretation / CLSI Interpretation / EUCAST Interpretation: PaR5; for Diameter / Results: Table I1; for Results: against Dmin-Dmax; for diameter in mm: disk diffusion inhibition diameter, strain PaR5; for CA-SFM Interpretation / CLSI Interpretation / EUCAST Interpretation: disk diffusion; for CA-SFM Interpretation: versus critical diameter CA-SFM 2011; for CLSI Interpretation: versus critical diameter CLSI 2011; for EUCAST Interpretation: versus critical diameter EUCAST 2011, for ** antibiotics the disk load differs and the EUCAST interpretation is not applicable
Protocol: (§1) The bacterial and antibiogramidentification is carried out by the VITEK 2 system (bioMérieux) and by the disk diffusion technique

[2] = tested on: EcR2: Cephalosporinase-Hyperproducing Strain of Escherichia coli; assay: Antibiogram, MIC by the VITEK 1 system; conditions: for MIC: Escherichia coli, read-out: MIC
Protocol: (§2) The bacterial and antibiogramidentification is carried out by the VITEK 1 system (bioMérieux) and by the disk diffusion technique

[3] = tested on: EcR3: ESBL-Producing Escherichia coli; assay: Antibiogram by the disk diffusion technique; conditions: for CA-SFM Interpretation: Cd CA-SFM 2011; for CLSI Interpretation: Cd CLSI 2011; for EUCAST Interpretation: Cd EUCAST 2011; for Diameter: Table C1; for Results: Table C1, against Dmin Dmax; for diameter in mm: Table C2
Protocol: The bacterial and antibiogramidentification is carried out by the VITEK 2 system (bioMerieux) and by the disk diffusion technique

[4] = tested on: EcR1: Penicillinase-Producing Escherichia coli without Associated Resistance; assay: Antibiogram by the disk diffusion technique; conditions: Table A1; for Diameter: EcR1, disk diffusion; for Results: EcR1, interpretation of the diameter against Dmin Dmax
Protocol: (§3) 5.1 EcR1: Penicillinase-Producing Escherichia coli without Associated Resistance The bacterial and antibiogramidentification is carried out by the VITEK 2 system (bioMérieux) and by the disk diffusion technique.

[5] = tested on: EcR2: Cephalosporinase-Hyperproducing Strain of Escherichia coli; assay: Antibiogram by the disk diffusion technique; conditions: Table B1
Protocol: as §2

[6] = tested on: PaR2: Pseudomonas aeruginosa; conditions: for CA-SFM Interpretation: Cd CA-SFM 2011; for CLSI Interpretation: Cd CLSI 2011; for EUCAST Interpretation: Cd EUCAST 2011; for Diameter: Table G1; for Results: Table G1, against Dmin-Dmax; for diameter in mm: Table G2
Protocol: as §1

[7] = tested on: EcR1: Penicillinase-Producing Escherichia coli without Associated Resistance; assay: Antibiogram, MIC by the VITEK 2 system; conditions: for CA-SFM Interpretation: EcR1, MIC against Cc CA-SFM 2011; for CLSI Interpretation: EcR1, MIC against Cc CLSI 2011; for EUCAST Interpretation: EcR1, MIC against Cc EUCAST 2011; for Results: EcR1, interpretation of the MIC, Table A1; for MIC: Escherichia coli
Protocol: as §3

[8] = tested on: SaR3: Meticillin-Resistant Staphylococcus aureus; assay: Antibiogram by the disk diffusion technique; conditions: for Diameter: Table E1; for diameter in mm: Table E2; for CA-SFM Interpretation: Cd CA-SFM 2011; for Results: Table E1, against Dmin Dmax
Protocol: as §1

[9] = tested on: SaR1: Meticillin-Resistant Staphylococcus aureus without Associated Resistance; assay: Antibiogram, MIC by the VITEK 2 system; conditions: SaR1; for CA-SFM Interpretation: Cc CA-SFM 2011; for Results: from MIC
Protocol: (§4) The bacterial and antibiogramidentification is carried out by the VITEK 2 system (bioMérieux)

[10] = tested on: SaR1: Meticillin-Resistant Staphylococcus aureus without Associated Resistance; assay: Antibiogram, inhibition diameter (Table D1); conditions: for Results: from diameter, against Dmin Dmax
Protocol: as §4

[11] = tested on: SaR4: Meticillin-Resistant Staphylococcus aureus; assay: Antibiogram, MIC by the VITEK 2 system; conditions: SaR4; for CA-SFM Interpretation: Cc CA-SFM 2011
Protocol: as §1

[12] = tested on: PaR3: Pseudomonas aeruginosa; assay: Antibiogram, MIC by the VITEK 2 system
Protocol: as §4

[13] = tested on: Escherichia coli strain ATCC 25922 (wild type); assay: MIC of the compounds used alone, microdilution in a liquid medium (CLSI); conditions: Escherichia coli, ATCC25922; antibiotic alone (second value of cell); E. coli ATCC 25922; read-out: Initial MICs
Description: (§5) The MICs of the antibiotics were previously defined for each strain, by the method of microdilution in a liquid medium (CLSI (Clinical and Laboratory Standards Institute), 2003).

[14] = tested on: penicillinase-producing strain of Escherichia coli without associated resistance (EcR1); assay: as above; conditions: Escherichia coli, antibiotic alone (second value of cell), read-out: Initial MICs
Description: as §5

[15] = tested on: cephalosporinase-hyperproducing strain of Escherichia coli (EcR2); assay: as above; conditions: Escherichia coli, antibiotic alone (second value of cell), read-out: Initial MICs
Description: as §5

[16] = tested on: ESBL-producing strain of Escherichia coli, having an associated resistance to the aminoglycosides (EcR3); assay: as above; conditions: Escherichia coli, antibiotic alone (second value of cell), read-out: Initial MICs
Description: as §5

[17] = EcR1, Table A2, read-out: MIC mg/L (diameter in mm)
[18] = EcR1, VITEK 2, Table A1, read-out: MIC

## CCN[C@@H]1C[C@H](N)[C@@H](O[C@H]2OC(CN)=CC[C@H]2N)[C@H](O)[C@H]1O[C@H]1OC[C@](C)(O)[C@H](NC)[C@H]1O [Netilmicin]
[1]
  Diameter: 28 mm
  Results: Susceptible
  diameter in mm: 28 mm
  CA-SFM Interpretation: Susceptible
  CLSI Interpretation: Susceptible
  EUCAST Interpretation: Susceptible
[2]; EcR2, from MIC, Cc CA-SFM 2011
  CA-SFM Interpretation: Susceptible
[2]; EcR2, from MIC, Cc CLSI 2011
  CLSI Interpretation: Susceptible
[2]; EcR2, from MIC, Cc EUCAST 2011
  EUCAST Interpretation: Susceptible
[2]; EcR2, VITEK 1, Table B1
  MIC: ≤ 1 mg/L
[2]; EcR2, Table B2, MIC
  MIC: ≤ 1 mg/L
[3]
  CA-SFM Interpretation: Resistant
  CLSI Interpretation: Resistant
  EUCAST Interpretation: Resistant
  Diameter: 10 mm
  Results: Resistant
  diameter in mm: 10 mm
[4]
  Diameter: 24 mm
  Results: Susceptible
[5]; EcR2, disk diffusion
  Diameter: 21
[5]; EcR2, rows that print a diameter
  Results: Susceptible
[6]
  CA-SFM Interpretation: Susceptible
  CLSI Interpretation: Susceptible
  EUCAST Interpretation: Susceptible
  Diameter: 19 mm
  Results: Susceptible
  diameter in mm: 19 mm
[7]
  CA-SFM Interpretation: Susceptible
  CLSI Interpretation: Susceptible
  EUCAST Interpretation: Susceptible
  Results: Susceptible
[7]; [17]
  MIC: ≤ 1 mg/L
[7]; [18]
  MIC: ≤ 1 mg/L

## CC1COc2c(N3CCN(C)CC3)c(F)cc3c(=O)c(C(=O)O)cn1c23 (centres unmarked) [Ofloxacin]
[1]
  Diameter: 11 mm
[8]
  Diameter: 6 mm
  diameter in mm: 6 mm
[9]; Table D2
  MIC: 1 mg/L (≈ 2.77 µM)
[9]; Staphylococcus aureus, Table D1, read-out: MIC
  MIC: 1 mg/L (≈ 2.77 µM)
[10]
  Diameter: 24 mm
[11]; Staphylococcus aureus, Table F1, read-out: MIC
  MIC: ≥ 8 mg/L
[11]; Staphylococcus aureus, Table F2, MIC, read-out: MIC
  MIC: ≥ 8 mg/L
[7]; [17]
  MIC: ≤ 0.25 mg/L
[7]; [18]
  MIC: ≤ 0.25 mg/L

## CCN1CCN(C(=O)N[C@@H](C(=O)N[C@@H]2C(=O)N3[C@@H]2SC(C)(C)[C@@H]3C(=O)O)c2ccccc2)C(=O)C1=O [Piperacillin]
[1]
  Diameter: 33 mm
  Results: Susceptible
  diameter in mm: 33 mm
  CA-SFM Interpretation: Susceptible
  CLSI Interpretation: Susceptible
  EUCAST Interpretation: Susceptible
[12]; Cc CA-SFM 2011
  CA-SFM Interpretation: Resistant
[12]; Cc CLSI 2011
  CLSI Interpretation: Resistant
[12]; Cc EUCAST 2011
  EUCAST Interpretation: Resistant
[12]; Pseudomonas aeruginosa, Table H2, read-out: MIC
  MIC: ≥ 128 mg/L
[12]; Table H1
  MIC: ≧128
  Results: Resistant
[3]
  CA-SFM Interpretation: Resistant
  CLSI Interpretation: Resistant
  EUCAST Interpretation: Resistant
  Diameter: 13 mm
  Results: Intermediate
  diameter in mm: 13 mm
[4]
  Diameter: 17 mm
  Results: Intermediate
[13]
  MIC: 2 mg/L
[14]
  MIC: 256 mg/L
[15]
  MIC: 32 mg/L
[16]
  MIC: 128 mg/L
[6]
  CA-SFM Interpretation: Susceptible
  CLSI Interpretation: Susceptible
  EUCAST Interpretation: Susceptible
  Diameter: 22 mm
  Results: Susceptible
  diameter in mm: 22 mm
[7]
  CA-SFM Interpretation: Susceptible
  CLSI Interpretation: Susceptible
  EUCAST Interpretation: Susceptible
  Results: Susceptible
[7]; [17]
  MIC: ≤ 8 mg/L
[7]; [18]
  MIC: ≤ 8 mg/L

## Pristinamycin
[8]
  CA-SFM Interpretation: Susceptible
  Diameter: 23 mm
  Results: Susceptible
  diameter in mm: 23 mm
[9]
  CA-SFM Interpretation: Susceptible
[9]; Table D1
  MIC mg/L: ≦0.5 mg/L
  Results: Susceptible
[9]; Table D2
  MIC mg/L: ≦0.5 mg/L
[10]
  Diameter: 25 mm
  Results: Susceptible
[11]; Table F1
  MIC mg/L: ≦2 mg/L
[11]; Table F1, MIC
  Results: Susceptible
[11]; Table F2, MIC
  MIC: ≦2 mg/L
[11]; from MIC
  CA-SFM Interpretation: Susceptible

## Teicoplanin
[8]
  CA-SFM Interpretation: Susceptible
  Results: Susceptible
  diameter in mm: 27 mm
[8]; Cd CLSI 2011
  CLSI Interpretation: Susceptible
[9]
  CA-SFM Interpretation: Susceptible
[9]; Cc CLSI 2011
  CLSI Interpretation: Susceptible
[9]; Cc EUCAST 2011
  EUCAST Interpretation: Susceptible
[9]; Table D1
  MIC mg/L: ≦0.5 mg/L
  Results: Susceptible
[9]; Table D2
  MIC mg/L: ≦0.5 mg/L
[10]
  Results: Susceptible
[11]; Table F1
  MIC mg/L: ≦4 mg/L
[11]; Table F1, MIC
  Results: Susceptible
[11]; Table F2, MIC
  MIC: ≦4 mg/L
[11]; from MIC
  CA-SFM Interpretation: Susceptible
[11]; from MIC, Cc CLSI 2011
  CLSI Interpretation: Susceptible
[11]; from MIC, Cc EUCAST 2011
  EUCAST Interpretation: Susceptible

— US20140066365A1, “USE OF CALIXARENES ASSOCIATED WITH AN ANTIBIOTIC IN THE TREATMENT OF BACTERIAL INFECTIONS” (priority 2011, published 2014)
